The values below come from ChEMBL document CHEMBL1127373 (J Med Chem, 1994).

pKi: −log10 of the molar value.

The experiment addresses Neuronal acetylcholine receptor. As to the kind of experiment: Tested for the binding affinity against neuronal nicotinic acetylcholine receptors from whole rat brain.

As to `CC[C@H]1C[C@@H](c2cccnc2)N(C)C1`, the pKi is 7.30.
The value for `C[C@H]1CC[C@@H](c2cccnc2)N1C` was 7.46; that for `CN1C[C@@H](CF)C[C@H]1c1cccnc1` was 7.95.
The value for `CN1[C@H](c2ccccc2)CC[C@H]1c1cccnc1` was 5.47; that for `CN1C[C@@H](O)C[C@H]1c1cccnc1` was 7.56.
The value for `C[C@@H]1CC[C@@H](c2cccnc2)N1C` was 5.92; that for `CN1C[C@@H](CO)C[C@H]1c1cccnc1` was 6.80; that for `CN1CCC(CF)[C@H]1c1cccnc1` (some centres not stated) was 7.01.
Take `COCC1CCN(C)[C@@H]1c1cccnc1` (some centres not stated): the pKi was 5.69.
The result for `CSC[C@H]1C[C@@H](c2cccnc2)N(C)C1` reads 6.31; that for `CN1C[C@@H](OS(C)(=O)=O)C[C@H]1c1cccnc1`, 6.44.
In the case of `COC[C@H]1C[C@@H](c2cccnc2)N(C)C1`, the pKi was 6.29.
As to `CN1C[C@H](C#N)C[C@H]1c1cccnc1`, the pKi was 7.09. This pKi lies 0.80 log units higher than the previous one.
The result for `CCCC[C@@H]1CC[C@@H](c2cccnc2)N1C` reads 5.86; that for `CN1CCC(CO)[C@H]1c1cccnc1` (some centres not stated), 6.21.
`CO[C@H]1C[C@@H](c2cccnc2)N(C)C1` showed a pKi of 7.44.
The result for `CN1C[C@@H](CC#N)C[C@H]1c1cccnc1` reads 7.28.
The value for `CC1CN(C)[C@H](c2cccnc2)C1C` (some centres not stated) was 7.02; that for `CC(=O)O[C@H]1C[C@@H](c2cccnc2)N(C)C1` was 6.99.
The value for `CN1C[C@@H](Cc2ccccc2)C[C@H]1c1cccnc1` was 6.92; that for `CN1C[C@H](CO)C[C@H]1c1cccnc1` was 6.53; that for `CN1[C@@H](c2ccccc2)CC[C@H]1c1cccnc1` was 5.91.
